Data published in patent US8058243B2, “Method for treating a brain cancer with ifenprodil” (HSC Research and Development Limited Partnership, priority 2006, dated 2011).
Structures can show the parent of a compound that is named as a salt. Where two headings read alike, the source gives them in different places.

System: murine neural precursor cells (neurosphere cultures)
Assay: HTS of LOPAC library against secondary neurosphere cultures, MTT proliferation assay at 3 μM, day 7 (z score, P value)
Format: cell-based, mouse
[1] = LOPAC primary screen, neurosphere MTT proliferation, 3 μM, day 7
[2] = yes/no: significantly inhibited neurosphere proliferation (P<0.01) in the primary screen
[3] = LOPAC library screen, 3 μM, MTT, secondary neurosphere cultures, day 7
[4] = yes = significantly inhibited neurosphere proliferation (P<0.01) in the primary screen
[5] = LOPAC library screen at 3 μM, MTT, secondary neurosphere cultures, screened in singlets
[6] = yes/no: significantly inhibited neurosphere proliferation in primary screen
[7] = LOPAC library screen, 3 μM, MTT, neurosphere cultures
[8] = LOPAC library screen at 3 μM, secondary neurosphere cultures, MTT
[9] = LOPAC screen, neurosphere MTT proliferation, 3 μM, day 7
[10] = yes/no: significantly inhibited neurosphere proliferation (P<0.01) in primary screen

In the case of `COc1cc([C@@H]2c3cc4c(cc3[C@H](O)[C@H]3COC(=O)[C@H]23)OCO4)cc(OC)c1OC` [Podophyllotoxin], the “Z Score” value is reported as −11.15, the Z score [1] is reported as −11.147 and the Activity [2] is reported as “yes”.
`O=C(C1CCCCC1)N1CC(=O)N2CCc3ccccc3C2C1` (stereo not drawn) [Praziquantel] was tested, and the “Z Score” value [3] was −2.296, the Z score [1] was −2.296 and the Activity [4] was “no”.
With `COc1cc2nc(N3CCN(C(=O)c4ccco4)CC3)nc(N)c2cc1OC` [Prazosin hydrochloride] the Activity was “yes”, the “Z Score” value [3] was −2.902 and the Z score [1] was −2.902.
With `CC(=O)[C@H]1CC[C@H]2[C@@H]3CC=C4C[C@@H](OS(=O)(=O)[O-])CC[C@]4(C)[C@H]3CC[C@]12C.[Na+]` [Pregnenolone sulfate sodium] the “Z Score” value [5] was 2.653, the Z score [1] was 2.653 and the Activity [6] was “no”.
For `CCCNC(C)C(=O)Nc1ccccc1C` (stereo not drawn) [Prilocaine hydrochloride], the “Z Score” value [5] was 1.509, the Z score [1] was 1.509 and the Activity [6] was “no”.
In the case of `CCC1(c2ccccc2)C(=O)NCNC1=O` [Primidone], the Activity is reported as “no”, the “Z Score” value [7] is reported as 0.6187 and the Z score [1] is reported as 0.619.
With `CCN(CC)CCNC(=O)c1ccc(N)cc1` [Procainamide hydrochloride] the “Z Score” value [7] was 0.6535, the Z score [1] was 0.654 and the Activity [2] was “no”.
With `CCN(CC)CCOC(=O)c1ccc(N)cc1` [Procaine hydrochloride] the “Z Score” value [7] was 0.5501, the Z score [1] was 0.550 and the Activity [2] was “no”.
`CN1CCN(CCCN2c3ccccc3Sc3ccc(Cl)cc32)CC1` [Prochlorperazine dimaleate] was tested, and the “Z Score” value (168 h, 3 µM) was −0.8602, the Z score (168 h, 3 µM) was −0.860 and the Activity [2] was “no”.
In the case of `CC(=O)[C@H]1CC[C@H]2[C@@H]3CCC4=CC(=O)CC[C@]4(C)[C@H]3CC[C@]12C` [Progesterone], the “Z Score” value [7] is reported as 0.4252, the Z score [1] is reported as 0.425 and the Activity [6] is reported as “no”.
With `CCCN(CCC)C(=O)C(CCC(=O)O)NC(=O)c1ccccc1` (stereo not drawn) [Proglumide] the “Z Score” value [3] was −1.907, the Z score [1] was −1.907 and the Activity [4] was “no”.
`CN(C)CCCN1c2ccccc2Sc2ccccc21` [Promazine hydrochloride] was tested, and the “Z Score” value [8] was −0.8882, the Z score [1] was −0.888 and the Activity [2] was “no”.
For `CC(CN1c2ccccc2Sc2ccccc21)N(C)C` (stereo not drawn) [Promethazine hydrochloride], the “Z Score” value [7] was 0.4746, the Z score [1] was 0.475 and the Activity [2] was “no”.
For `CCCNCC(O)COc1ccccc1C(=O)CCc1ccccc1` (stereo not drawn) [Propafenone hydrochloride], the “Z Score” value [8] was −0.9673, the Z score [1] was −0.967 and the Activity [4] was “no”.
With `CC(C)[N+](C)(CCOC(=O)C1c2ccccc2Oc2ccccc21)C(C)C` [Propantheline bromide] the “Z Score” value (168 h, 3 µM) was −1.534, the Z score (168 h, 3 µM) was −1.534 and the Activity [6] was “no”.
For `CCCn1cnc2c1c(=O)n(CCCCC(C)=O)c(=O)n2C` [Propentofylline], the “Z Score” value [7] was 0.1563, the Z score [1] was 0.156 and the Activity [6] was “no”.
`CCC(=O)c1ccc2c(c1)N(CCCN(C)C)c1ccccc1S2` [Propionylpromazine hydrochloride] was tested, and the “Z Score” value [3] was −1.584, the Z score [1] was −1.584 and the Activity [2] was “no”.
With `CC(C)c1cccc(C(C)C)c1O` [Propofol] the Activity was “no”, the “Z Score” value was 0.3768 and the Z score was 0.377.
With `C=CC1=C(C)c2cc3[nH]c(cc4nc(cc5[nH]c(cc1n2)c(C)c5CCC(=O)O)C(CCC(=O)O)=C4C)c(C)c3C=C` [Protoporphyrin IX disodium] the “Z Score” value (168 h, 3 µM) was −3.441, the Z score (168 h, 3 µM) was −3.441 and the Activity [4] was “yes”.
With `CNCCCC1c2ccccc2C=Cc2ccccc21` [Protriptyline hydrochloride] the “Z Score” value [7] was 0.7603, the Z score [1] was 0.760 and the Activity [6] was “no”.
With `CC(C)[C@H](CO)Nc1nc(Nc2cccc(Cl)c2)c2ncn(C(C)C)c2n1` [Purvalanol A] the “Z Score” value [3] was −11.23, the Z score [1] was −11.234 and the Activity [2] was “yes”.
In the case of `Cl.Cl.NCCCCN` [Putrescine dihydrochloride], the Activity is reported as “no”, the “Z Score” value is reported as −0.7689 and the Z score is reported as −0.769.
In the case of `NC(=O)c1cnccn1` [Pyrazinecarboxamide], the “Z Score” value [3] is reported as −1.617, the Z score [1] is reported as −1.617 and the Activity [6] is reported as “no”.
In the case of `CN(C)C(=O)Oc1ccc[n+](C)c1` [Pyridostigmine bromide], the “Z Score” value is reported as 0.2311, the Z score [1] is reported as 0.231 and the Activity [6] is reported as “no”.
For `COc1ccc(CN(CCN(C)C)c2ccccn2)cc1` [Pyrilamine maleate], the “Z Score” value [7] was 0.9893, the Z score [1] was 0.989 and the Activity [4] was “no”.
With `Oc1ccccc1O` [Pyrocatechol] the “Z Score” value was −2.053, the Z score [9] was −2.053 and the Activity [10] was “no”.
In the case of `C[C@@H]1C(=O)NC2=Nc3cccc(Cl)c3CN21` [Quazinone], the “Z Score” value [7] is reported as 0.2046, the Z score [1] is reported as 0.205 and the Activity [6] is reported as “no”.
For `O.O.O=c1c(O)c(-c2ccc(O)c(O)c2)oc2cc(O)cc(O)c12` [Quercetin dihydrate], the “Z Score” value was −2.302, the Z score [1] was −2.302 and the Activity [6] was “no”.
`CCN(CC)CCCC(C)Nc1c2ccc(Cl)cc2nc2ccc(OC)cc12` (stereo not drawn) [Quinacrine dihydrochloride] was tested, and the Activity was “yes”, the “Z Score” value [3] was −9.712 and the Z score [1] was −9.712.
`CCCN1CCC[C@@H]2Cc3nc(N)ncc3C[C@H]21` [Quinelorane dihydrochloride] was tested, and the Z score [1] was −1.567 and the Activity [6] was “no”.
With `CCCN1CCC[C@@H]2Cc3nc(N)ncc3C[C@H]21.Cl.Cl` [Quinelorane dihydroechloride] the “Z Score” value was −1.567.
With `C=C[C@H]1C[N@@]2CC[C@H]1C[C@@H]2[C@@H](O)c1ccnc2ccc(OC)cc12` [Quinidine sulfate] the “Z Score” value [3] was −1.93, the Z score [1] was −1.930 and the Activity [6] was “no”.
In the case of `C=C[C@H]1C[N@@]2CC[C@H]1C[C@H]2[C@H](O)c1ccnc2ccc(OC)cc12` [Quinine sulfate], the “Z Score” value [8] is reported as −0.2686, the Z score [1] is reported as −0.269 and the Activity [6] is reported as “no”.
With `O=C(O)c1cccnc1C(=O)O` [Quinolinic acid] the “Z Score” value (168 h, 3 µM) was −2.419, the Z score (168 h, 3 µM) was −2.419 and the Activity [4] was “yes”.
For `O=C(O)/C=C\C(=O)O.O=[N+]([O-])c1ccc2nc(N3CCNCC3)ccc2c1` [Quipazine, 6-nitro-, maleate], the “Z Score” value [7] was 0.9782, the Z score [1] was 0.978 and the Activity [6] was “no”.
In the case of `CN1CCN(c2ccc3ccccc3n2)CC1.O=C(O)/C=C\C(=O)O.O=C(O)/C=C\C(=O)O` [Quipazine, N-methyl-, dimaleate], the “Z Score” value [8] is reported as −0.3254, the Z score [1] is reported as −0.325 and the Activity [6] is reported as “no”.
With `CCCN1CCC[C@H](c2cccc(O)c2)C1.Cl` [R(+)-3PPP hydrochloride] the “Z Score” value was −2.213, the Z score [1] was −2.213 and the Activity [6] was “no”.
With `Br.C=CCN1CCc2c(cc(O)c(O)c2Br)[C@@H](c2ccccc2)C1` [R(+)-6-Bromo-APB hydrobromide] the “Z Score” value was 1.532, the Z score [9] was 1.532 and the Activity [10] was “no”.
For `CC(C)NC[C@@H](O)COc1ccc(CC(N)=O)cc1` [R(+)-Atenolol], the “Z Score” value [5] was 3.764, the Z score (primary LOPAC screen, 3 μM, MTT, neurosphere proliferation) was 3.764 and the Activity (yes/no: significantly inhibited neurosphere proliferation in the primary screen) was “no”.
In the case of `C[C@@]1(C2CCCC2)Cc2cc(OCC(=O)O)c(Cl)c(Cl)c2C1=O` [R(+)-IAA-94], the “Z Score” value is reported as −0.01015, the Z score [1] is reported as −0.010 and the Activity [10] is reported as “no”.
